Results on 28 molecules are retold here after patent US9561231B2 (AbbVie Inc., priority 2012, dated 2017).

Assay [1] deals with T1, first (BD1: amino acids K57-E168) bromodomain of BRD4 (Homo sapiens, UniProt O60885).
T1 construct: His-tagged first (BD1: amino acids K57-E168)
In words: TR-FRET bromodomain binding assay, BRD4 BD1. To be noted: Ki calculated from IC50, probe Kd and probe concentration, read-out: TR-FRET Binding Ki: BRD4 (BDI_K57-E168). The method, then:
(§1) A time-resolved fluorescence resonance energy transfer (TR-FRET) assay was used to determine the affinities of compounds of the Examples listed in Table 1 for each bromodomain of BRD4. His-tagged first (BD1: amino acids K57-E168) and second (BD2: amino acids E352-E168) bromodomains of BRD4 were expressed and purified. An Alexa647-labeled BET-inhibitor was used as the fluorescent probe in the assay.
(§2) Compound dilution series were prepared in DMSO via an approximately 3-fold serial dilution from one of the following:
(§3) or 5-fold serial dilution from one of the following:
(§4) Assay method A: 2.5 mM-800 nM
(§5) For Assay methods A, C, D, and F: Compounds were then diluted 6:100 in assay buffer (20 mM Sodium Phosphate, pH 6.0, 50 mM NaCl, 1 mM Ethylenediaminetetraacetic acid, 0.01% Triton X-100, 1 mM DL-Dithiothreitol) to yield 3× working solutions. […] of this solution were added to the assay plate to reach a final volume of 18 μL.
(§6) TR-FRET data were normalized to the means of 24 no-compound controls (“high”) and 8 controls containing 1 μM un-labeled probe (“low”). Percent inhibition was plotted as a function of compound concentration and the data were fit with the 4 parameter logistic equation to obtain IC50s. Inhibition constants (Ki) were calculated from the IC50s, probe Kd and probe concentration. Typical Z′ values were between 0.65 and 0.75.

Assay [2] has as its target T2, second (BD2: amino acids E352-E168) bromodomain of BRD4 (Homo sapiens, UniProt O60885).
T2 construct: protocol
Kind of assay: TR-FRET bromodomain binding assay, BRD4 BD2. The settings on record: Ki calculated from IC50, probe Kd and probe concentration, read-out: TR-FRET Binding Ki: BRD4 (BDII_E352-M457). The method, then:
as §1, §2, §3, §4, §5, §6

[3] abbreviates: TR-FRET assay protocol (A-G, compound concentration range).
Where [4] appears, read: TR-FRET assay protocol (D, E or G) per compound.

Structures are written as SMILES. Where two headings read alike, the source gives them in different places.

With `CC(=O)OCc1ccc(-c2cc(=O)n(C)nc2-c2ccccc2Oc2ccccc2)cc1` [Example 80, 4-[1-methyl-6-oxo-3-(2-phenoxyphenyl)-1,6-dihydropyridazin-4-yl]benzyl acetate], the Ki (as a rule, the dissociation constant of the complex between target and ligand, obtained from inhibition or displacement) in assay [1] (setting [3]) is 708 nM; in assay [2] (setting [3]), 439 nM.

As to `CCS(=O)(=O)Nc1ccc(Oc2ccc(F)cc2F)c(-c2cn(C)c(=O)cc2-c2cscc2C=O)c1` [Example 332, N-{4-(2,4-difluorophenoxy)-3-[4-(4-formylthiophen-3-yl)-1-methyl-6-oxo-1,6-dihydropyridin-3-yl]phenyl}ethanesulfonamide], the Ki in assay [1] (setting [3]) is 1010 nM; in assay [2] (setting [3]) it was 205 nM.

Turning to `CCOc1cc(=O)n(C)cc1-c1cc(NC(=O)c2ccc(C(C)C)cc2)ccc1Oc1ccc(F)cc1F` [Example 413, N-[4-(2,4-difluorophenoxy)-3-(4-ethoxy-1-methyl-6-oxo-1,6-dihydropyridin-3-yl)phenyl]-4-(propan-2-yl)benzamide], the Ki in assay [1] (setting [4]) was 181 nM; in assay [2] (setting [4]), 148 nM.

For the molecule `CCOc1cc(=O)n(C)cc1-c1cc(NS(=O)(=O)c2ccc3ccccc3c2)ccc1Oc1ccc(F)cc1F` [Example 418, N-[4-(2,4-difluorophenoxy)-3-(4-ethoxy-1-methyl-6-oxo-1,6-dihydropyridin-3-yl)phenyl]naphthalene-2-sulfonamide], the Ki is 362 nM in assay [1] (setting [4]) and 165 nM in assay [2] (setting [4]).

For the molecule `Cn1nc(-c2cc(C(=O)O)ccc2Oc2ccccc2)ccc1=O` [Example 15, 3-(1-methyl-6-oxo-1,6-dihydropyridazin-3-yl)-4-phenoxybenzoic acid], the Ki in assay [1] (setting [3]) was 17800 nM; in assay [2] (setting [3]), 16300 nM.

`Cn1nc(-c2ccccc2Oc2ccccc2)c(-c2cnn(Cc3ccccc3)c2)cc1=O` [Example 113, 5-(1-benzyl-1H-pyrazol-4-yl)-2-methyl-6-(2-phenoxyphenyl)pyridazin-3(2H)-one]: the Ki in assay [1] (setting [3]) was 407 nM; in assay [2] (setting [3]), 317 nM.

For the molecule `CC(=O)Nc1cncc(-c2cc(=O)n(C)nc2-c2ccccc2Oc2ccccc2)c1` [Example 121, N-{5-[1-methyl-6-oxo-3-(2-phenoxyphenyl)-1,6-dihydropyridazin-4-yl]pyridin-3-yl}acetamide], the figures for the Ki in assay [1] (setting [3]) and in assay [2] (setting [3]) were 1120 nM and 2960 nM, respectively.

Regarding `COc1cc(=O)n(C)nc1-c1ccccc1Oc1ccc(F)c(Cl)c1` [Example 34, 6-[2-(3-chloro-4-fluorophenoxy)phenyl]-5-methoxy-2-methylpyridazin-3(2H)-one], the Ki in assay [1] (setting [3]) was 8170 nM; in assay [2] (setting [3]), 3190 nM.

For `Cn1nc(-c2ccccc2Oc2ccccc2)c(-c2cncc(NCc3ccccc3)c2)cc1=O` [Example 138, 5-[5-(benzylamino)pyridin-3-yl]-2-methyl-6-(2-phenoxyphenyl)pyridazin-3(2H)-one], the figures for the Ki in assay [1] (setting [3]) and in assay [2] (setting [3]) were 7430 nM and 3180 nM, respectively.

In the case of `CCS(=O)(=O)c1ccc(OCC2CC2)c(-c2cc(N)c(=O)n(C)c2)c1` [Example 357, 3-amino-5-[2-(cyclopropylmethoxy)-5-(ethylsulfonyl)phenyl]-1-methylpyridin-2(1H)-one], the Ki is 159 nM in assay [1] (setting [3]) and 1420 nM in assay [2] (setting [3]).

For `CCN(CC)C(=O)c1cc(-c2cc(=O)n(C)nc2-c2ccccc2Oc2ccccc2)ccc1F` [Example 181, N,N-diethyl-2-fluoro-5-[1-methyl-6-oxo-3-(2-phenoxyphenyl)-1,6-dihydropyridazin-4-yl]benzamide], the figures for the Ki in assay [1] (setting [3]) and in assay [2] (setting [3]) were 3950 nM and 6160 nM, respectively.

Consider `CC(=O)c1ccc(F)c(-c2cc(=O)n(C)nc2-c2ccccc2Oc2ccccc2)c1` [Example 132, 5-(5-acetyl-2-fluorophenyl)-2-methyl-6-(2-phenoxyphenyl)pyridazin-3(2H)-one], for which the values for the Ki in assay [1] (setting [3]) and in assay [2] (setting [3]) were above 13000 nM and 8050 nM, respectively.

Take `CCOc1cc(=O)n(C)cc1-c1cc(NC(=O)c2ccc(-c3ccccc3)cc2)ccc1Oc1ccc(F)cc1F` [Example 304, N-[4-(2,4-difluorophenoxy)-3-(4-ethoxy-1-methyl-6-oxo-1,6-dihydropyridin-3-yl)phenyl]biphenyl-4-carboxamide]: the Ki in assay [1] (setting [3]) was 195 nM; in assay [2] (setting [3]) it was 359 nM.

Consider `CN1CC=C(c2cc(=O)n(C)nc2-c2ccccc2Oc2ccccc2)CC1` [Example 83, 2-methyl-5-(1-methyl-1,2,3,6-tetrahydropyridin-4-yl)-6-(2-phenoxyphenyl)pyridazin-3(2H)-one], for which the values for the inhibition constant Ki in assay [1] (setting [3]) and in assay [2] (setting [3]) were 3610 nM and 6830 nM, respectively.

With `CCNC(=O)c1ccc(-c2cc(=O)n(C)nc2-c2ccccc2Oc2ccccc2)cc1` [Example 202, N-ethyl-4-[1-methyl-6-oxo-3-(2-phenoxyphenyl)-1,6-dihydropyridazin-4-yl]-benzamide], the values for the Ki in assay [1] (setting [3]) and in assay [2] (setting [3]) were 227 nM and 251 nM, respectively.

For the molecule `Cn1nc(-c2ccccc2Oc2ccccc2)c(-c2ccc(C(=O)NC3CCCCC3)cc2)cc1=O` [Example 185, N-cyclohexyl-4-[1-methyl-6-oxo-3-(2-phenoxyphenyl)-1,6-dihydropyridazin-4-yl]benzamide], the Ki was 832 nM in assay [1] (setting [3]) and 324 nM in assay [2] (setting [3]).

With `CCOc1cc(=O)n(C)cc1-c1cc(NC(=O)c2ccc(OC(C)C)cc2)ccc1Oc1ccc(F)cc1F` [Example 301, N-[4-(2,4-difluorophenoxy)-3-(4-ethoxy-1-methyl-6-oxo-1,6-dihydropyridin-3-yl)phenyl]-4-(propan-2-yloxy)benzamide], the Ki was 61.8 nM in assay [1] (setting [3]) and 55.6 nM in assay [2] (setting [3]).

Turning to `COc1cc(=O)n(C)nc1-c1ccccc1OCC1CCOCC1` [Example 47, 5-methoxy-2-methyl-6-[2-(tetrahydro-2H-pyran-4-ylmethoxy)phenyl]pyridazin-3(2H)-one], the Ki in assay [1] (setting [3]) is 5280 nM; in assay [2] (setting [3]) it was above 22200 nM.

With `Cn1nc(-c2ccccc2Oc2ccccc2)c(-c2ccc(CC#N)cc2)cc1=O` [Example 94, {4-[1-methyl-6-oxo-3-(2-phenoxyphenyl)-1,6-dihydropyridazin-4-yl]phenyl}acetonitrile], the Ki in assay [1] (setting [3]) was 402 nM; in assay [2] (setting [3]), 154 nM.

As for `COCCCNC(=O)c1ccc(-c2cc(=O)n(C)nc2-c2ccccc2Oc2ccccc2)cc1` [Example 171, N-(3-methoxypropyl)-4-[1-methyl-6-oxo-3-(2-phenoxyphenyl)-1,6-dihydropyridazin-4-yl]benzamide], the Ki in assay [1] (setting [3]) was 253 nM; in assay [2] (setting [3]) it was 215 nM.

In the case of `Cc1cccc(OCC2CC2)c1-c1ccc(=O)n(C)c1` [Example 356, 5-[2-(cyclopropylmethoxy)-6-methylphenyl]-1-methylpyridin-2(1H)-one], the results for the Ki in assay [1] (setting [3]) and in assay [2] (setting [3]) were 1390 nM and 752 nM, respectively.

As to `CCS(=O)(=O)c1ccc(O[C@H]2CC[C@@](C)(OC)CC2)c(-c2ccc(=O)n(C)c2)c1` [Example 360, 5-{5-(ethylsulfonyl)-2-[(cis-4-methoxy-4-methylcyclohexyl)oxy]phenyl}-1-methylpyridin-2(1H)-one], the results for the Ki in assay [1] (setting [3]) and in assay [2] (setting [3]) were 127 nM and 700 nM, respectively.

On to `CN(C)C(=O)c1cccc(-c2cc(=O)n(C)nc2-c2ccccc2Oc2ccccc2)c1` [Example 109, N,N-dimethyl-3-[1-methyl-6-oxo-3-(2-phenoxyphenyl)-1,6-dihydropyridazin-4-yl]benzamide], for which the Ki is 1260 nM in assay [1] (setting [3]) and 1530 nM in assay [2] (setting [3]).

For the molecule `COc1cc(-c2cc(=O)n(C)nc2-c2ccccc2Oc2ccccc2)ccc1F` [Example 199, 5-(4-fluoro-3-methoxyphenyl)-2-methyl-6-(2-phenoxyphenyl)pyridazin-3(2H)-one], the Ki in assay [1] (setting [3]) was above 13000 nM; in assay [2] (setting [3]), 5660 nM.

In the case of `Cn1nc(-c2cc(C#N)ccc2Oc2ccccc2)ccc1=O` [Example 13, 3-(1-methyl-6-oxo-1,6-dihydropyridazin-3-yl)-4-phenoxybenzonitrile], the Ki in assay [1] (setting [3]) was 13100 nM; in assay [2] (setting [3]), 10200 nM.

As to `CCOc1cc(=O)n(C)cc1-c1cc(NS(=O)(=O)CC)ccc1OC1CCN(C(C)=O)CC1` [Example 389, N-{4-[(1-acetylpiperidin-4-yl)oxy]-3-(4-ethoxy-1-methyl-6-oxo-1,6-dihydropyridin-3-yl)phenyl}ethanesulfonamide], the Ki was 1260 nM in assay [1] (setting [4]) and 3990 nM in assay [2] (setting [4]).

`Cn1nc(-c2ccccc2Oc2ccccc2)c(-c2cccc(N3CCOCC3)c2)cc1=O` [Example 139, 2-methyl-5-[3-(morpholin-4-yl)phenyl]-6-(2-phenoxyphenyl)pyridazin-3(2H)-one]: the Ki in assay [1] (setting [3]) was above 1520 nM; in assay [2] (setting [3]) it was 879 nM.

Take `CC(C)CCn1cc(-c2cc(=O)n(C)nc2-c2ccccc2Oc2ccccc2)cn1` [Example 129, 2-methyl-5-[1-(3-methylbutyl)-1H-pyrazol-4-yl]-6-(2-phenoxyphenyl)pyridazin-3(2H)-one]: the values for the Ki in assay [1] (setting [3]) and in assay [2] (setting [3]) were 520 nM and 264 nM, respectively.
